The values below are quoted from earlier work in patent US8440424B2, “Identification of antibiotic resistance using labelled antibiotics” (miacom Diagnostics GmbH, priority 2008, dated 2013).

For this series, the system named is 23S rRNA. To be noted: cited from earlier work.
[1] abbreviates: 23S rRNA position 2611 "C to G", Chlamydomonas reinhardtii, Harris et al. 1989.
Setting [2] is: 23S rRNA position 2611 "C to U", Chlamydomonas reinhardtii, Harris et al. 1989.

Like-named read-outs stand apart in the source and are kept apart here. Positions of bridges follow the written chain, without caps; N, C: chain ends. Non-standard residues stand in square brackets, D forms with d. Residues, ends and D or L forms follow the SMILES beside them. *: point of attachment. NMePhe(4-NMe2) = CN[C@@H](Cc1ccc(N(C)C)cc1)C(=O)O; Pip(4-oxo) = O=C1CCN[C@H](C(=O)O)C1; Picolinoyl(3-OH) = O=C(c1ncccc1O)*; Phg = N[C@H](C(=O)O)c1ccccc1; dAbu = CC[C@@H](N)C(=O)O

For `C[C@H]1O[C@H](O[C@H]2CC[C@H](n3ccc(NC(=O)c4ccc(NC(=O)[C@@](C)(N)CO)cc4)nc3=O)O[C@@H]2C)[C@H](O)[C@@H](O)[C@@H]1N(C)C` [Amicetin], the Phenotype result was “Amicetin resistance” (23S rRNA position 2438 U to A, Halobacterium halobium, Leviev 1994) and “Amicetin resistance” (23S rRNA position 2438 U to C, Halobacterium halobium, Leviev 1994).

On to `COc1ccc(C[C@H]2NC[C@H](O)[C@H]2OC(C)=O)cc1` [Animosycin], for which the Phenotype entry is given as “Animosycin resistance” (23S rRNA position 2452 C to U, Halobacterium, Hummel 1987) and “Animosycin resistance” (23S rRNA position 2452 C to U, Tetrahymena thermophilia, Sweeney 1991).

`COc1ccc(C[C@H]2NC[C@H](O)[C@H]2OC(C)=O)cc1` [Anisomycin]: the Phenotype entry is recorded as “resistance” (23S rRNA position 2447 G to C, Halobacterium halobium, Hummel 1987) and “Anisomycin resistance” (23S rRNA position 2453 A to C, Halobacterium halobium, Hummel 1987).

Turning to `O=C(N[C@H](CO)[C@H](O)c1ccc([N+](=O)[O-])cc1)C(Cl)Cl` [CAM], under “23S rRNA position 2505 G to C (with A1067U and thiostrepton), E. coli, Saarma 1992, 1993”, the Phenotype result is “Hypersensitivity to CAM;”.

Regarding `O=C(N[C@H](CO)[C@H](O)c1ccc([N+](=O)[O-])cc1)C(Cl)Cl` [Chloramphenicol], the Phenotype entry by setting is: (23S rRNA position 2061 G to A, Rat mitochondria) “resistance”; (23S rRNA position 2062 A to C, Halobacterium halobium) “resistance”; (23S rRNA position 2447 G to A, Yeast mitochondria, Dujon 1980) “resistance”; (23S rRNA position 2451 A to U, Mouse mitochondria, Kearsey 1981) “resistance”; (23S rRNA position 2452 C to A, Human mitochondria, Blanc 1981) “resistance”; (23S rRNA position 2452 C to U, Halobacterium halobium, Mankin 1991) “resistance”. For the same compound, the Phenotype result reads like this: (23S rRNA position 2452 C to U, Mouse mitochondria, Slott 1983) “resistance”; (23S rRNA position 2503 A to C, Yeast mitochondria, Dujon 1980) “resistance”; (23S rRNA position 2504 U to C, Human mitochondria, Kearsey 1981) “resistance”; (23S rRNA position 2504 U to C, Mouse mitochondria, Blanc 1981) “resistance”.

For `CC[C@H]1OC(=O)[C@H](C)[C@@H](O[C@H]2C[C@@](C)(OC)[C@@H](O)[C@H](C)O2)[C@H](C)[C@@H](O[C@@H]2O[C@H](C)C[C@H](N(C)C)[C@H]2O)[C@](C)(OC)C[C@@H](C)C(=O)[C@H](C)[C@@H](O)[C@]1(C)O` [Clarithomycin], the Phenotype result (23S rRNA position 2059 A to G, Helicobacter pylori) was “resistance”.

`CC[C@H]1OC(=O)[C@H](C)[C@@H](O[C@H]2C[C@@](C)(OC)[C@@H](O)[C@H](C)O2)[C@H](C)[C@@H](O[C@@H]2O[C@H](C)C[C@H](N(C)C)[C@H]2O)[C@](C)(OC)C[C@@H](C)C(=O)[C@H](C)[C@@H](O)[C@]1(C)O` [Clarithromycin]: the Phenotype entry (23S rRNA position 2058 A to G, Helicobacter pylori) is given as “resistance”.

As to `CC[C@H]1OC(=O)[C@H](C)[C@@H](O[C@H]2C[C@@](C)(OC)[C@@H](O)[C@H](C)O2)[C@H](C)[C@@H](O[C@@H]2O[C@H](C)C[C@H](N(C)C)[C@H]2O)[C@](C)(O)C[C@@H](C)C(=O)[C@H](C)[C@@H](O)[C@]1(C)O` [Ery], the Phenotype result (23S rRNA double mutation (A2058U/G2032A), E. coli) is “hs”; the Phenotype entry (23S rRNA double mutation (G2032A/A2058U), E. coli) is “hs”; the Phenotype entry (23S rRNA double mutation (G2057A/C2661U), E. coli) is reported as “Slightly Eryr;”; the Phenotype entry under setting [1] is listed as “Eryr”; the Phenotype result under setting [2] was “Eryr”; the Phenotype result (23S rRNA position 2611 "C to U", double mutation (C2611U/G2057A), E. coli, Vester et al. 1995) is on record as “Slightly Eryr; reduced”.

As to `CC[C@H]1OC(=O)[C@H](C)[C@@H](O[C@H]2C[C@@](C)(OC)[C@@H](O)[C@H](C)O2)[C@H](C)[C@@H](O[C@@H]2O[C@H](C)C[C@H](N(C)C)[C@H]2O)[C@](C)(O)C[C@@H](C)C(=O)[C@H](C)[C@@H](O)[C@]1(C)O` [Erythromycin], the Phenotype entry by setting is: (23S rRNA double deletion (1230/1231), E. coli) “Erythromycin sensitive. a Double”; (23S rRNA double mutant (C1207U/C1243U), E. coli) “Erythromycin resistant. a Double”; (23S rRNA double mutant (C1208U/C1243U), E. coli) “Erythromycin resistant. a Double”; (23S rRNA double mutant (C1211U/C1208U), E. coli) “Erythromycin sensitive. a Double”; (23S rRNA double mutant (C1221U/C1229U), E. coli) “Erythromycin resistant. a Double”; (23S rRNA double mutant (C1221U/C1233U), E. coli) “Erythromycin resistant. a Double”. Also, the Phenotype result is given as “Erythromycin resistant. a Double” (23S rRNA double mutant (C1243U/C1221U), E. coli); “Erythromycin resistant. a Double” (23S rRNA double mutant (G1220A/G1239A), E. coli); “Erythromycin sensitive. a Double” (23S rRNA double mutant (G1232A/G1238A), E. coli); “Erythromycin sensitive. a” (23S rRNA position 1233 C to U, E. coli); “Erythromycin sensitive. a” (23S rRNA position 1234 U to C, E. coli); “Erythromycin sensitive. a Double” (23S rRNA position 1234 del1234/del1235, double mutant (U1234C/del1235), E. coli). Further, the Phenotype result was “resistance” (23S rRNA position 2058 A to G, Yeast mitochondria); “spiramycin resistance” (23S rRNA position 2611 "C to G", Chlamydomonas reinhardtii, Gauthier et al. 1988); “spiramycin resistance” (23S rRNA position 2611 "C to G", Yeast mitochondria, Sor and Fukahara 1984).

Consider `CCC[C@@H]1C[C@@H](C(=O)N[C@@H]([C@H]2O[C@H](SC)[C@H](O)[C@@H](O)[C@H]2O)[C@@H](C)O)N(C)C1` [Lincomycin], for which the Phenotype result (23S rRNA position 2032 G to A, Tobbaco chloroplasts) was “resistance”; the Phenotype entry (23S rRNA position 2058 A to G, Chlamydomonas reinhardtii) is listed as “resistance”; the Phenotype entry (23S rRNA position 2058 A to G, Solanum nigrum) is reported as “resistance”; the Phenotype entry (23S rRNA position 2058 A to G, Tobacco chloroplasts) is recorded as “resistance”; the Phenotype result (23S rRNA position 2059 A to G, Tobacco chloroplasts) is “resistance”.

On to `CSC[S@+]([O-])C[C@H](CO)NC(=O)/C=C/c1c(C)[nH]c(=O)[nH]c1=O` [Sparsomycin], for which the Phenotype entry (23S rRNA position 2499 C to U, Halobacterium halobium, Tan 1996) was “resistance”.

Consider `O=C(N[C@H](CO)[C@H](O)c1ccc([N+](=O)[O-])cc1)C(Cl)Cl` [chloramphenicol], for which the Phenotype entry (23S rRNA position 2505 G to A, E. coli, Hansen 1999) is recorded as “Conferred resistance to”.

For `CC[C@H]1OC(=O)[C@H](C)[C@@H](O[C@H]2C[C@@](C)(OC)[C@@H](O)[C@H](C)O2)[C@H](C)[C@@H](O[C@@H]2O[C@H](C)C[C@H](N(C)C)[C@H]2O)[C@](C)(O)C[C@@H](C)C(=O)[C@H](C)[C@@H](O)[C@]1(C)O` [erythromycin], the Phenotype result runs as follows: (23S rRNA double mutant (A1262G/U2017C), E. coli, growth on erythromycin) “Wild-type growth on”; (23S rRNA double mutant (A1262U/U2017A), E. coli, growth on erythromycin) “Wild-type growth on”; (23S rRNA double mutant (G1137A/G1138C), E. coli, with 2058G and erythromycin, expressed from rrnB promoter) “lethal when expressed from rrnB”; (23S rRNA position 1068 G to A, E. coli, with 2058G, expressed from rrnB or pL promotor in presence of erythromycin) 2058G) Lethal when; (23S rRNA position 1072 C to U, E. coli, expressed from rrnB or pL promotor in presence of erythromycin) “Lethal when expressed from”; (23S rRNA position 1137 G to A, E. coli, with 2058G and erythromycin, expressed from rrnB promoter) “lethal when expressed from rrnB”. For the same compound, the Phenotype result was “lethal when expressed from rrnB” (23S rRNA position 1138 G to C, E. coli, with 2058G and erythromycin, expressed from rrnB promoter); “With erythromycin; lethal” (23S rRNA position 1262 A to C, E. coli, with erythromycin); “With erythromycin; lethal” (23S rRNA position 1262 A to G, E. coli, with erythromycin).

`CCC[C@@H]1C[C@@H](C(=O)N[C@@H]([C@H]2O[C@H](SC)[C@H](O)[C@@H](O)[C@H]2O)[C@@H](C)O)N(C)C1` [lincomycin]: the Phenotype result is on record as “low level” under setting [1] and “low level” under setting [2].

In the case of `CC[C@H]1NC(=O)[C@@H](NC(=O)c2ncccc2O)[C@@H](C)OC(=O)[C@H](c2ccccc2)NC(=O)[C@@H]2CC(=O)CCN2C(=O)[C@H](Cc2ccc(N(C)C)cc2)N(C)C(=O)[C@@H]2CCCN2C1=O` [pristinamycin 1A] ({Picolinoyl(3-OH)}-T[dAbu]P[NMePhe(4-NMe2)][Pip(4-oxo)][Phg]; ester 1-C), the Phenotype result runs as follows: (23S rRNA A2602C/C2501A, E. coli, binding on peptidyl transferase loop, Porse 1999) “Inhibits binding of 1A”; (23S rRNA U2500A/C2501A, E. coli, binding on peptidyl transferase loop, Porse 1999) “Inhibits binding of 1A”.
